Reference: US12570671B2 (BRISTOL-MYERS SQUIBB COMPANY, priority 2020, dated 2026)
Read-outs that look alike come from different tables or passages of the source.

Experiments:
Assay type in all cases: cell-based
Helios [1] = target: T1, Helios (Homo sapiens, UniProt Q96SW2+Q9UKS7); test: Helios Cellular Degradation Assay (Helios readout); design: Jurkat cells were plated at 80,000 cells/well; endogenous in cells; host or cells: Jurkat; details: Jurkat cells, 72 h incubation, Helios-PE antibody staining, flow cytometry; read-out: Helios Jurkat IC50
T1 sequence (Q9UKS7 whole entry): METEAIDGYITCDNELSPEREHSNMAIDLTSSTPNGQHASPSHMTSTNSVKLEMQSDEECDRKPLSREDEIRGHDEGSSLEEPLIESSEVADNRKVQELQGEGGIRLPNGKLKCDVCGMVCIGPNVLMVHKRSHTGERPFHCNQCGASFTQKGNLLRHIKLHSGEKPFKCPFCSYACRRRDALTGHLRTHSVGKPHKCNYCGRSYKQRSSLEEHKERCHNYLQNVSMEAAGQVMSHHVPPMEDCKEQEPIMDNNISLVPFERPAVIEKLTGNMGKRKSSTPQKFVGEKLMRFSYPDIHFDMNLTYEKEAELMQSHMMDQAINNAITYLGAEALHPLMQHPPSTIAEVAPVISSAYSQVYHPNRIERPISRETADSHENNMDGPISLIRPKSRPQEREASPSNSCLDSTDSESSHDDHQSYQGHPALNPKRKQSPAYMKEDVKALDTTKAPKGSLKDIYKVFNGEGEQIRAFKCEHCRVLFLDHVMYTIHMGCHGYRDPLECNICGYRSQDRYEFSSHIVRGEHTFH
T1 sequence (Q96SW2 whole entry): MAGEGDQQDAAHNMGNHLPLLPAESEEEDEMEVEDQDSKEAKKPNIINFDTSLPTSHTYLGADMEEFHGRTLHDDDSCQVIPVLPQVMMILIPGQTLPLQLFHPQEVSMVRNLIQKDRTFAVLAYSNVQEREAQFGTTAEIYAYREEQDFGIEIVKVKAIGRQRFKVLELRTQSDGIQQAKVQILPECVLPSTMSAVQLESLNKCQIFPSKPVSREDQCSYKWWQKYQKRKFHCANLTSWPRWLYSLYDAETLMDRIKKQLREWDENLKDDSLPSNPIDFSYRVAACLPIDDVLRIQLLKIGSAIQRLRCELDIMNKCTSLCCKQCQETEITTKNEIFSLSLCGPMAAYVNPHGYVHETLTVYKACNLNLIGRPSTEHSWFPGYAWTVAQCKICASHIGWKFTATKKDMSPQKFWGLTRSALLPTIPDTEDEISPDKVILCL
T1 sequence (Q16531 whole entry partner): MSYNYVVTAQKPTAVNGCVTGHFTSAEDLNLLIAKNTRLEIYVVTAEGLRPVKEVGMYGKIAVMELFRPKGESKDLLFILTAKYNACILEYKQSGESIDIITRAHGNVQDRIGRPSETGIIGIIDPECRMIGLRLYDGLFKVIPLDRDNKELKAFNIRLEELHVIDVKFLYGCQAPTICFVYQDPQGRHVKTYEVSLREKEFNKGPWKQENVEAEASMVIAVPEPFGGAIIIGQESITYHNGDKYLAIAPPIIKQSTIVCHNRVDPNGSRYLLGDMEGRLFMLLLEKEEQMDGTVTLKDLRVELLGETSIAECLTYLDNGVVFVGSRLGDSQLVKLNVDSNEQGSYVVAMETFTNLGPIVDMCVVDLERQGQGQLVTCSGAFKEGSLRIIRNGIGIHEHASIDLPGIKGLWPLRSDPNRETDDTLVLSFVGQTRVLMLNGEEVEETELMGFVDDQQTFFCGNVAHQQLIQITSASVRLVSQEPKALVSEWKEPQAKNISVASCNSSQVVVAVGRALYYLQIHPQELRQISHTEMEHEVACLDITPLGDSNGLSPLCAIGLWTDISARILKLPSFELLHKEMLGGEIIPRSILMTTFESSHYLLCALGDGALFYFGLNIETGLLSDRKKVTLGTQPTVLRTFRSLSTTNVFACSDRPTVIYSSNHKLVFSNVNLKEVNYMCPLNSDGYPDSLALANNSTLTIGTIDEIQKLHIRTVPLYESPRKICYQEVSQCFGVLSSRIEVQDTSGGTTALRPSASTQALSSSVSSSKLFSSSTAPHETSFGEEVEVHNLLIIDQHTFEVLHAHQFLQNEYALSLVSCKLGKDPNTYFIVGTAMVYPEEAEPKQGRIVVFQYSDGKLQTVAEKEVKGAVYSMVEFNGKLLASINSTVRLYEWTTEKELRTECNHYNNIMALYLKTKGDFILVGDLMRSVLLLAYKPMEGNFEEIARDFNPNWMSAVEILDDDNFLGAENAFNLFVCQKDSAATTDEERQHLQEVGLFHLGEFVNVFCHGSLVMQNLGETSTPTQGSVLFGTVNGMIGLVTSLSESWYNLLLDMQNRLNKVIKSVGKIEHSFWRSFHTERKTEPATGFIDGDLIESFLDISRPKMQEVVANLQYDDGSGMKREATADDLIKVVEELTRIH
Experimental: (§1) Jurkat cells were plated at 80,000 cells/well in 40 μL RPMI+10% FBS in a 384 well cell culture plate prior to using acoustic dispensing technology for adding compound of interest. Cell cultures were incubated for 72 h at 37° C. and 5% C02. In order to facilitate analysis, cell cultures were spun down at 200 rpm for 5 min and the supernatant was discarded. After shaking the plate to dislodge the cell pellet, cells were resuspended in 50 μL of Fixation Buffer (eBioScience FoxP3 buffer set 00-5523-00) for 60 min at room temperature. After centrifuging and discarding the supernatant, cells were permeabilized with 50 μL of Permeabilization buffer (eBioScience FoxP3 buffer set 00-5523-00) for 10 min at room temperature. Following permeabilization, cells were spun down and the supernatant was replaced with 20 μL fluorescently labelled antibodies against Helios, Ikaros and Aiolos or corresponding Isotype controls in 1× Permeabilization buffer (Ikaros-Alexa488 [Biolegend, Cat #368408, 1:50], Helios-PE [CST, Cat #29360, 1:50], Aiolos-Alexa647 [Biolegend, Cat #371106Biolegend, 1:25]) and staining reactions were incubated for 1 h at room temperature; protected from light. […] Stained cells were resuspended in 25 μL of flow cytometry staining buffer (PBS+0.2% BSA) and analyzed using an Intellicyt Ique Plus flow cytometer.

Ikaros [2] = target: T2, Ikaros (Homo sapiens, UniProt Q13422+Q96SW2); test: Helios Cellular Degradation Assay (Ikaros readout); design: Jurkat cells were plated at 80,000 cells/well; endogenous in cells; host or cells: Jurkat; details: Jurkat cells, 72 h incubation, Ikaros-Alexa488 antibody staining, flow cytometry; read-out: Ikaros Jurkat IC50
T2 sequence (Q13422 whole entry): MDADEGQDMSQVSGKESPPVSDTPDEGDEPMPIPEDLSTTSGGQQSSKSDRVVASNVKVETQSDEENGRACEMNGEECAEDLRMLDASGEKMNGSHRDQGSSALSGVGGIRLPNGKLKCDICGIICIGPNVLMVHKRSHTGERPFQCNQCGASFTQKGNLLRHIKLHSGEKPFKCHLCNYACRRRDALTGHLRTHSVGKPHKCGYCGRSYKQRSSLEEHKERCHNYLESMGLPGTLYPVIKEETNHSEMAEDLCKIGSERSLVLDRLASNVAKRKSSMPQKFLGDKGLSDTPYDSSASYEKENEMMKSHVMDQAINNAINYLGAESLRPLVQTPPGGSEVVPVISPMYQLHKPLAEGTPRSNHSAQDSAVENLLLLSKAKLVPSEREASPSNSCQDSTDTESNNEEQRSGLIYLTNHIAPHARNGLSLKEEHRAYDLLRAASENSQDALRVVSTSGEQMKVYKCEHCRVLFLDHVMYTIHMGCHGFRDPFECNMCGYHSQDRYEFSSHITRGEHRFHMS
T2 sequence (Q96SW2 whole entry): as the sequence (Q96SW2 whole entry) above
T2 sequence (Q16531 whole entry partner): as the sequence (Q16531 whole entry partner) above
Experimental: as §1

Ikaros [3] = target: T2, Ikaros; test: Helios Cellular Degradation Assay (Ikaros readout); design: endogenous in cells; host or cells: Jurkat; details: Jurkat cells, 72 h incubation, Ikaros-Alexa488 antibody staining, flow cytometry; read-out: Ikaros Jurkat IC50
Outline: (§2)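 Jurkat cells (80,000/well, RPMI+10% FBS) were treated with compound for 72 h at 37° C. After fixation and permeabilization they were stained with fluorescent antibodies to Helios, Ikaros and Aiolos. Intracellular protein levels were quantified by flow cytometry.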

Helios [4] = target: T1, Helios; test: Helios Cellular Degradation Assay (Helios readout); design: endogenous in cells; host or cells: Jurkat; details: Jurkat cells, 72 h incubation, Helios-PE antibody staining, flow cytometry; read-out: Helios Jurkat IC50
Outline: as §2

Row | Compound | DC50 (Helios [1]) [µM] | DC50 (Ikaros [2]) [µM] | DC50 (Ikaros [3]) [µM] | DC50 (Helios [4]) [µM]
1 | O=C1CCC(N2Cc3cc(-c4cc(COCc5ccccc5)ccn4)ccc3C2=O)C(=O)N1 (centres unmarked) [Example 154] | 3.98 | ≥ 10 |  | 
2 | NC(=O)c1nc(-c2ccc3c(c2)CN([C@H]2CCC(=O)NC2=O)C3=O)cc2ccccc12 [Example 126, 3-{2-[(3S)-2,6-dioxopiperidin-3-yl]-1-oxo-2,3-dihydro-1H-isoindol-5-yl}isoquinoline-1-carboxamide] |  |  | ≥ 20 | 2.99
3 | O=C1CCC(N2Cc3cc(-c4ccc5c(n4)NCCO5)ccc3C2=O)C(=O)N1 (centres unmarked) [Example 141, 3-(5-(3,4-dihydro-2H-pyrido[3,2-b][1,4]oxazin-6-yl)-1-oxoisoindolin-2-yl)piperidine-2,6-dione] |  |  | ≥ 20 | 0.08
4 | N#Cc1cc(N)nc(-c2ccc3c(c2)CN(C2CCC(=O)NC2=O)C3=O)c1 (centres unmarked) [Example 149, 2-amino-6-(2-(2,6-dioxopiperidin-3-yl)-1-oxoisoindolin-5-yl)isonicotinonitrile] |  |  | ≥ 10 | 0.19
5 | Nc1ccc(-c2ccc3c(c2)CN(C2CCC(=O)NC2=O)C3=O)nc1N (centres unmarked) [Example 117, 3-(5-(5,6-diaminopyridin-2-yl)-1-oxoisoindolin-2-yl)piperidine-2,6-dione] |  |  | ≥ 10 | 0.15
6 | CC(C)c1cc(N)nc(-c2ccc3c(c2)CN(C2CCC(=O)NC2=O)C3=O)c1C#N (centres unmarked) [Example 179, 6-amino-2-(2-(2,6-dioxopiperidin-3-yl)-1-oxoisoindolin-5-yl)-4-isopropylnicotinonitrile] |  |  | ≥ 10 | ≥ 10
7 | Cc1ccc(-c2ccc3c(c2)CN(C2CCC(=O)NC2=O)C3=O)nc1N (centres unmarked) [Example 116, 3-(5-(6-amino-5-methylpyridin-2-yl)-1-oxoisoindolin-2-yl)piperidine-2,6-dione] |  |  | ≥ 10 | 0.17
8 | Cc1cc(=O)c2ccc(-c3ccc4c(c3)CN(C3CCC(=O)NC3=O)C4=O)nc2o1 (centres unmarked) [Example 62, 3-(5-{2-methyl-4-oxo-4H-pyrano[2,3-b]pyridin-7-yl}-1-oxo-2,3-dihydro-1H-isoindol-2-yl)piperidine-2,6-dione] |  |  | > 20 | > 20
9 | O=C1CCC(N2Cc3cc(-c4ncnc5ccccc45)ccc3C2=O)C(=O)N1 (centres unmarked) [Example 91, 3-(1-oxo-5-(quinazolin-4-yl)isoindolin-2-yl)piperidine-2,6-dione] |  |  | ≥ 20 | 0.21
10 | CC(C)c1nc2ccccc2nc1-c1ccc2c(c1)CN(C1CCC(=O)NC1=O)C2=O (centres unmarked) [Example 98, 3-(5-(3-isopropylquinoxalin-2-yl)-1-oxoisoindolin-2-yl)piperidine-2,6-dione] |  |  | ≥ 20 | 0.86
11 | Nc1cc2ccccc2c(-c2ccc3c(c2)CN(C2CCC(=O)NC2=O)C3=O)n1 (centres unmarked) [Example 25, 3-[5-(3-aminoisoquinolin-1-yl)-1-oxo-2,3-dihydro-1H-isoindol-2-yl]piperidine-2,6-dione] |  |  | 8.4 | 0.048
12 | O=C1CCC(N2Cc3cc(-c4cc5[nH]ccc5cn4)ccc3C2=O)C(=O)N1 (centres unmarked) [Example 159, 3-(1-oxo-5-(1H-pyrrolo[3,2-c]pyridin-6-yl)isoindolin-2-yl)piperidine-2,6-dione] |  |  | 0.32 | 0.05
13 | CC(=O)O[C@H]1CCOc2nc(-c3ccc4c(c3)CN([C@H]3CCC(=O)NC3=O)C4=O)ccc21 [Example 127, (4S)-7-{2-[(3S)-2,6-dioxopiperidin-3-yl]-1-oxo-2,3-dihydro-1H-isoindol-5-yl}-2H,3H,4H-pyrano[2,3-b]pyridin-4-yl acetate] |  |  | ≥ 20 | 7.46
